Three molecules from patent US9164084B2, “Methods for determining aggressiveness of a cancer and treatment thereof” (Purdue Research Foundation, priority 2012, dated 2015) can be followed below.

Format in all cases: cell-based, human
For test [1], the system named is PC-3 cells. Kind of test: Cell growth / viable cell number of PC-3 cells. The note with it: added LDL or AA (FIG. 46). Here is the method: Because cholesteryl ester accumulation was found in PCa but not in normal prostate, how cell viability could be affected by regulating cholesteryl ester levels with the ACAT inhibitor Avasimibe was evaluated. […] The inhibitory effect of Avasimibe on the growth of PC-3 and LNCaP-HP cells was considerably greater than that in cholesteryl ester poor cancer cells including LNCaP-LP, DU145, and C4-2.

For another test, the system named is LNCaP-HP cells. Put plainly: Spectroscopic (SRL) imaging and Raman spectral analysis of lipid droplets in LNCaP-HP cells. Here is the method: The LNCaP-HP cells were treated with an ACAT inhibitor, avasimibe (structure shown in FIG. 13, Panel D), at 10 μM for 2 days.
(§1) A broad spectrum of human prostate epithelial cells has been examined. […] Loss of the tumor suppressor PTEN has been widely observed in both localized and metastatic prostate cancer and correlated with high Gleason grade. With loss of PTEN, PI3K signaling is hyper-activated, which, in turn, leads to AKT activation. […] AKT mediates the phosphorylation and activation of mTOR complex 1 (mTORC1) which plays critical roles in the regulation of protein and lipid biosynthesis. To determine whether the PI3K/AKT/mTOR pathway regulates cholesteryl ester accumulation, both types of cholesteryl ester rich cell lines, PC-3 and high passage LNCaP (LNCaP-HP), were treated with LY294002 (PI3K inhibitor), MK2206 (AKT inhibitor), and Rapamycin (mTOR inhibitor), respectively.
(§2) It is well known that LDL enters a cell via LDL receptor (LDLr) and traffics to the late endosome and lysosome where it is hydrolyzed to free fatty acids and free cholesterol. The excess free cholesterol together with the fatty acyl CoA substrate is then converted to cholesteryl ester by Acyl coenzyme A: cholesterol acyltransferase (ACAT) and stored in lipid droplets. Thus, cells were separately treated with Avasimibe and Sandoz 58-035, two different ACAT inhibitors. […] The significant reduction of cholesteryl ester accumulation upon Avasimibe treatment was further confirmed by an independent biochemical assay of cell lysates.

Test [2] concerns PC-3 cells. Put plainly: Spectroscopic imaging and Raman spectral analysis of lipid droplets in PC-3 cells.
Description: as §1
Because cholesterol can be either de novo synthesized via the mevalonate pathway or taken up from exogenous lipoproteins, the source of cholesterol used for cholesteryl ester accumulation was investigated. PC-3 cell were first treated with Simvastatin, an inhibitor of 3-hydroxy-3-methylglutaryl coenzyme A HMG-CoA reductase, the rate-limiting enzyme of the mevalonate pathway. […] In contrast, after treating cells with lipoprotein-deficient serum (LPDS), lipid droplets nearly disappeared in cholesteryl ester rich PC-3 and LNCaP-HP cells (FIG. 29, Panel A), but remained the same amount in cholesteryl ester poor cells including LNCaP-LP, DU145, and C4-2. Re-addition of low-density lipoprotein (LDL) into the LPDS medium restored lipid droplets and cholesteryl ester in both PC-3 and LNCaP-HP cells (FIG. 29, Panel B).
as §2

On to `CCCCC/C=C\C/C=C\C/C=C\C/C=C\CCCC(=O)O` [AA, arachidonic acid], for which the “growth of PC-3 cells” value in the test with PC-3 cells [1] was “promoted the growth of PC-3 cells in a dose-dependent manner”.

As to `NC1(c2ccc(-c3nc4ccn5c(=O)[nH]nc5c4cc3-c3ccccc3)cc2)CCC1` [MK2206], the “autofluorescent granules indicative of autophagy” value in the test with LNCaP-HP cells and in the test with PC-3 cells [2] was “induced massive accumulation of autofluorescent granules” in each case. Moreover, the lipid droplet amount entry in the test with LNCaP-HP cells and in the test on PC-3 cells [2] was “radically removed lipid droplets” in each case.

`CCCCCCCCCC[Si](C)(C)CCC(=O)NC(Cc1ccc(C)cc1)c1ccccc1` (stereo not drawn) [Sandoz 58-035]: the lipid droplet amount entry in the test on LNCaP-HP cells and in the test on PC-3 cells [2] was “remaining unchanged” in each case. Besides, the cholesteryl ester accumulation entry in the test with LNCaP-HP cells (ACAT inhibitor treatment) and with PC-3 cells [2] (ACAT inhibitor treatment) was “effectively suppressed cholesteryl ester accumulation” each time.
